Data as given in patent publication US5342834A, “Method for androgen supplementation” (priority 1992, dated 1994).
Entries after “also recorded” stand apart in the source; their conditions may differ.

Experiments:
[1] = Metabolism by rat liver 13K supernatant fraction; type: in vitro ADME; conditions: 30 min, 37° C., system enriched with NADPH
Method: (§1) To prepare rat liver microsomes and cytosol, thawed livers were homogenized in 4 vol. of TED buffer (10mM Tricine, 1.5 mM EDTA, 1 mM dithiothreitol, pH 7.4) using a glass homogenizer and a loosefitting Teflon piston for nine strokes with intermittent cooling. This and all subsequent steps were performed at 4° C. The homogenate was spun at 13000×g for 30 min in a Sorvall refrigerated centrifuge. The supernatant fraction was recentrifuged at 13000×g for another 30 min. The resulting supernatant fraction (13K supernatant) was centrifuged at 105,000×g using a Beckman Ultracentrifuge (Model L) for 60 min. The 105K supernatant (cytosol) was saved. The microsomal pellet was resuspended in TED buffer, and spun down again at 105,000×g. The resulting pellet is known as the 105K pellet of the microsome fraction (or "microsome") .
Incubation mixtures consisted of 52 nmol of unlabeled steroid (T, 7MNT or 19NT), approximately 40,000 CPM of the corresponding tritiated steroid and 5 umol of NADPH in 0.2 ml TED buffer (pH 7.4). This was incubated for 10 min at 37° C. in a constant temperature water bath. Reaction was initiated by the addition of 0.8 ml of either 13K supernatant, microsomes or cytosol, containing 7.05, 0.62 or 5.64 mg/ml of protein, respectively. […] The combined organic phase was evaporated and the remaining steroids were analyzed. […]

[2] = Metabolism (decrease of steroid level) in incubation with rat liver cytosol; type: in vitro ADME; conditions: for remaining at 2 h: 2h incubation, read-out: steroid remaining unmetabolized / recovered
Method: as §1
(§2) Incubation mixtures consisted of 52 nmol of unlabeled steroid (T, 7MNT or 19NT), approximately 40,000 CPM of the corresponding tritiated steroid and 5 umol of NADPH in 0.2 ml TED buffer (pH 7.4). This was incubated for 10 min at 37° C. in a constant temperature water bath. Reaction was initiated by the addition of 0.8 ml of either 13K supernatant, microsomes or cytosol, containing 7.05, 0.62 or 5.64 mg/ml of protein, respectively. Incubations were quenched with 2 ml of ethyl acetate, vortexed briefly, and frozen in a dry ice-alcohol bath. The ethyl acetate was separated from the frozen aqueous phase. Extraction was performed again in the same way. The combined organic phase was evaporated and the remaining steroids were analyzed.
The procedure used for the cytosol preparations was the same as that for microsomes, except that incubations were carried out for 90 min.
(§3) For isolation of radioactive metabolites, the procedure was the same as for unlabeled metabolites, except that each tube contained 50,000 CPM of ^3 H-labeled 7MNT.
(§4) In this series of experiments, the decreases in the levels of testosterone,19-nortestosterone, and 7MNT were followed over a two-hour period of incubation with microsomal or cytosolic fractions of rat liver. […] Catabolism of 19NT was maximum at 30 min, with no further change beyond that, leaving a persistent unmetabolized residue of about 20 percent of the added steroid. After 30 min of incubation, 85 percent of the 7MNT remained unaltered; forty percent of the 7MNT was recovered after 2h.

[3] = Metabolism (decrease of steroid level) in incubation with rat liver microsomes; type: in vitro ADME
Method: as §1, §2
In preparation for the isolation and identification of unlabelled steroid metabolites in the microsome preparations, 360 μg of 7MNT were dispensed into 24 tubes in parallel with identical tubes containing ^3 H-labeled 7MNT to be used as marker steroid. The mixtures were incubated for 60 min at 37° C., extracted twice with 2 ml of ethyl acetate, taken to dryness, redissolved in a mixture of dichloromethane/methanol (1:1, v/v) and quantitatively applied to silica gel coated TLC plates along with synthetically prepared suspected metabolites of radioactive 7MNT in a parallel lane. The plates were developed with chloroform/methanol (95:5, v/v). Spots corresponding to the radioactive marked spots were eluted with ethyl acetate and taken to dryness.
as §3, §4

[4] = Non-androgenic (e.g. progestational) activity
[5] = Metabolism (5α reduction) of 3H-androgens by rat epididymis; type: in vitro ADME; conditions: for metabolised: rat, epididymis homogenate, pH 7.4, androgen = 100%, read-out: Conversion of 5α reduced metabolites: Diols
Method: The metabolism of T, 19NT and 7MNT by rat epididymis was also studied. Collected epididymides were processed as described for prostate. Incubations were performed in Tricine-buffer pH 7.4 as used for liver incubations. Thin layer chromatography of metabolic mixtures and standards was performed as described for prostate preparations.

[6] = Metabolism (5α reduction) of 3H-androgens by rat ventral prostate homogenate; type: in vitro ADME; conditions: for metabolism / 5α reduction in prostate (in words): prostate homogenate; for metabolised at 0.5 h: rat, ventral prostate homogenate, ventral prostate, androgen = 100%, 30 min incubation, read-out: Conversion of 5α reduced metabolites: 5α-dihydro-steroid
Method: To study metabolism in rat prostate, ventral prostates (1 g) were collected in ice-cold saline. All subsequent operations were carried out at 0°-4° C. The tissues were washed three times with homogenizing buffer (50 mM tris, 1.5 mM EDTA, 1 mM dithiothreitol and 10% glycerol, pH 7.5) and then homogenized in 4 vol. of the same buffer using an Ultra-turrax at a setting of 6. The prostates were given three 10 seconds bursts with intermittent cooling. The resulting homogenate was passed through four layers of cheesecloth and the filtrate was collected.
Incubation mixtures consisted of 50 nmol of unlabeled steroid, 40,000 CPM of the corresponding tritiated steroid and 1 μmol of NADPH in 0.2 ml of the buffer. The mixture was equilibrated for 10 min at 37° C. Reaction was started by adding 0.8 ml of homogenate (5.3 mg/ml protein). After 30 min of incubation, the mixture was cochromatographed with authentic steroids selected as possible metabolites.

[7] = background statement; cited from earlier work

| Structure (SMILES) | metabolism by 13K supernatant (in words) [1] | androgen potency (in words) (Androgenic potency) | metabolism in cytosol (in words) [2] | metabolism in microsomes (in words) [3] | remaining at 0.5 h ([3]; after 30 min of incubation, read-out: steroid remaining unaltered) [%] | steroid recovered ([3]; after 2h) | non-androgenic activity (in words) [4] | metabolism / 5α reduction in epididymis (in words) [5] | metabolism / 5α reduction in prostate (in words) [6] | remaining at 2 h [2] [%] | persistent unmetabolized residue of the added steroid ([3]; beyond 30 min of two-hour incubation) | time of maximum catabolism ([3]; two-hour incubation) [min] | metabolised [5] [%] | metabolised at 0.5 h [6] [%] | androgen potency versus testosterone (in words) [7] | time before which steroid was completely metabolized ([3]; earliest aliquot taken at 15 min) [min] |
| --- | --- | --- | --- | --- | --- | --- | --- | --- | --- | --- | --- | --- | --- | --- | --- | --- |
| C[C@@H]1CC2=CC(=O)CC[C@@H]2[C@H]2CC[C@]3(C)[C@@H](O)CC[C@H]3[C@@H]21 [7MNT, 7α-methyl-19-nortestosterone] | relatively resistant to metabolism under these incubation conditions; also recorded: Two metabolites, tentatively identified as 7α-methyl-5β-estrane-3, 17β-diol and 7α-methyl-estr-4-ene-3, 17-dione were found; also recorded: A minor highly polar metabolite was also observed | high potency | Half of the starting 7MNT was recovered after 2h incubation; also recorded: generated at least one metabolite that was more polar than the parent compound | After 30 min of incubation, most of the 7MNT was retrieved unaltered; also recorded: Two significant 7α-methylated metabolites were observed: a less polar one representing the 3,17-dione, and a more polar one in the region of the diols or triols; also recorded: An additional quantitatively minor polar metabolite was also detected | 85 | forty | lack of significant non-androgenic activity | substantially no 5α-dihydro product was formed in either tissue; also recorded: epididymis did not reduce or otherwise metabolize 7MNT | substantially no 5α-dihydro product was formed in either tissue; also recorded: remained unmetabolized; also recorded: did not reduce or otherwise metabolize 7MNT; also recorded: not converted to the 5α-dihydro product |  |  |  |  |  |  |  |
| C[C@]12CC[C@H]3[C@@H](CCC4=CC(=O)CC[C@@H]43)[C@@H]1CC[C@@H]2O [19NT, 19-nortestosterone] |  |  | still slower | qualitatively similar to that of T, though slower |  |  |  | converted to their respective reduced A ring metabolites; also recorded: metabolized more slowly than T | metabolized to the reduced product more slowly than testosterone | 40 | about 20% | 30 | 57 | 22 |  |  |
| C[C@]12CCC(=O)C[C@@H]1CC[C@@H]1[C@@H]2CC[C@]2(C)[C@@H](O)CC[C@@H]12 [DHT, 5α-dihydrotestosterone] |  |  |  |  |  |  |  |  |  |  |  |  |  |  | much more potent androgen than testosterone |  |
| C[C@]12CC[C@H]3[C@@H](CCC4=CC(=O)CC[C@@]43C)[C@@H]1CC[C@@H]2O [T, testosterone] |  |  |  | completely metabolized by the microsomes before the earliest aliquot was taken |  |  |  | converted to their respective reduced A ring metabolites | nearly half of the added T was reduced to 5α-DHT | ~12 |  |  | 86 | 48 |  | < 15 |
